Reference: patent US20150080438A1, “6,7-Dihydro-5H-benzo[7]annulene derivatives, processes for their preparation, pharmaceutical products comprising them and their use for preparing medicaments” (Bayer Intellectual Property GmbH, priority 2011, published 2015)
Where a name gives a salt, the structure may show the parent alone.

Columns and labels:
oestrogen receptor (ER) = target: T1, oestrogen receptor (ER) (Homo sapiens, UniProt P03372); assay: Anti-oestrogenic action in MVLN cells (inhibition of estradiol-induced luciferase, transactivation antagonism); format: cell-based; conditions: inhibition of estradiol-induced luciferase activity, read-out: Anti-oestrogenic action in vitro: MVLN transactivation antagonism IC50
T1 construct: These MVLN cells express, along with the functional oestrogen receptor (ER), a reporter construct; endogenous in cells; host or cells: MVLN cells (MCF7 derivative with ER-responsive luciferase reporter)
T1 sequence (P03372 1-595): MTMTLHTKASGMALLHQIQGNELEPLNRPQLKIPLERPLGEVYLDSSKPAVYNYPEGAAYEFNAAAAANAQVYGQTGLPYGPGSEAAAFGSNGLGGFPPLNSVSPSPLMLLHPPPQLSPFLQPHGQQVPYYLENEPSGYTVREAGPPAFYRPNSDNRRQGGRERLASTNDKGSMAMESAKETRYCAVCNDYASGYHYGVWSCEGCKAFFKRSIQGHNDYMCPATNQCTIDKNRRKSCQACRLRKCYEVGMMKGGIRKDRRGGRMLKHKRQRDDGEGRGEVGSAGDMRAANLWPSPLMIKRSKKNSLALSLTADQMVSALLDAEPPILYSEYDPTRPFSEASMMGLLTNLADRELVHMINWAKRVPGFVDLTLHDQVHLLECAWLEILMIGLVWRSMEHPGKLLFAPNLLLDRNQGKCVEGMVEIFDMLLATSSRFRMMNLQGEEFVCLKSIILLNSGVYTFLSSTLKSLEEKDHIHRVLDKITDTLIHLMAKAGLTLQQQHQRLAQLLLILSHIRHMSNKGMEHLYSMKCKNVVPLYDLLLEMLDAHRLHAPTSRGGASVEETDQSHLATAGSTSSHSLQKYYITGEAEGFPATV
Method in brief: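 MCF7-derived MVLN cells carrying an ER-driven luciferase reporter; test compounds applied with estradiol, and anti-oestrogenic action scored as inhibition of the estradiol-induced luciferase signal.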

[1] = test system: uterus growth induced by 17β-estradiol; assay: Anti-uterus growth test in the adult rat; format: in vivo; conditions: ovariectomized adult rat, percentage inhibition of uterus growth; for inhibition in vivo at 0.3 mg/kg: sc, 0.3 mg/kg s.c. d1-d3 with 1.5 μg/kg/day 17β-estradiol, read-out: Anti-oestrogenic activity in vivo in % at a dose of 0.3 mg/kg (rat)
Text: The uterus of oestrogen-substituted rats can be used as a test model for detecting a direct action of substances with anti-oestrogenic properties. The parameter of oestrogenic action is estradiol-induced uterus growth in rats, which is inhibited by simultaneous administration of a substance with anti-oestrogenic action. The experimental animals (n=5-6 animals/group) were ovariectomized before the start of the test, to rule out the influence of endogenous oestrogens. After a phase of 6 to 10 days, the test substances are administered s.c. on 3 consecutive days (d1-d3) in combination with a substitution dose of 1.5 μg/kg/day of 17β-estradiol. 17β-estradiol alone serves as positive control, and the excipients serve as negative control. On day 4 (d4) the animals are killed, and the uteri and vaginae are removed and weighed. The organ weights are converted to mg/100 g body weight, then the mean value and the standard deviation are calculated for each dosage. The inhibition of uterus or vaginal growth induced by 17β-estradiol is shown as percentage inhibition. The selected claimed substances were investigated in adult female rats as described for their anti-oestrogenic, inhibitory action on the weight of the uterus. At the dosage used, the substances show a marked anti-oestrogenic action in vivo (Table 3 and Table 4).

[2] = test system: ovarian estradiol synthesis; assay: Stimulation of ovarian oestrogen synthesis (HPG axis) in hormonally intact adult rats; format: in vivo, rat; conditions: 3 mg/kg daily for 10 days, quotient of peripheral estradiol values after and before treatment
Text: The clinical use both of pure anti-oestrogens and of various SERMs for the treatment of premenopausal women is limited by their property of stimulating the ovaries through activation of the hypothalamic-pituitary-gonadal axis (HPG axis), which leads to the increase in peripheral estradiol levels (Palomba, S., Orio, F., Jr., Morelli, M., Russo, T., Pellicano, M., Zupi, E., Lombardi, G., Nappi, C., Panici, P. L., and Zullo, F. (2002). Raloxifene administration in premenopausal women with uterine leiomyomas: a pilot study. J Clin Endocrinol Metab 87, 3603-3608). This stimulation of the HPG axis is associated with penetration of the blood-brain barrier and penetration of the brain. To investigate the ovary-stimulating properties of the claimed pharmacological compounds, hormonally intact adult rats were treated with the substances daily for a period of 10 days. The study end point is the quotient of peripheral estradiol values after and before treatment.
Selected claimed pharmacological substances were investigated as described for their stimulating action on the HPG axis or ovarian estradiol synthesis. The selected substances show markedly less stimulation of the ovaries than the control compound raloxifene at equal dosages (cf. Table 5).

Row | SMILES | IC50 (oestrogen receptor (ER)) [nM] | Anti-oestrogenic activity in vivo in % at a dose of 1 mg/kg (rat) ([1]; 1 mg/kg s.c. d1-d3 with 1.5 μg/kg/day 17β-estradiol) [%] | inhibition in vivo at 0.3 mg/kg [1] [%] | Stimulation of ovarian oestrogen synthesis: factor at a dose of 3 mg/kg rat [2]
1 | CN(CCCCCC1=C(c2ccccc2)CCCc2cc(O)ccc21)CCC[S+]([O-])CCCC(F)(F)C(F)(F)F (racemic) [Example 2, 9-[5-(Methyl{3-[(RS)-(4,4,5,5,5-pentafluoropentyl)sulphinyl]propyl}amino)pentyl]-8-phenyl-6,7-dihydro-5H-benzo[7]annulen-3-ol] | 8 | 94 | 51 | 1.8
2 | CN(CCCCCC1=C(c2cccc(O)c2)CCCc2cc(O)ccc21)CCCCS(=O)(=O)CCCC(F)(F)C(F)(F)F [Example 7, 8-(3-Hydroxyphenyl)-9-[5-(methyl{4-[(4,4,5,5,5-pentafluoropentyl)sulphonyl]butyl}amino)pentyl]-6,7-dihydro-5H-benzo[7]annulen-3-ol] | 5 |  | 31 | 1.8
3 | CN(CCCCCCC1=C(c2cccc(O)c2)CCCc2cc(O)ccc21)CCCCCCS(=O)(=O)CCCC(F)(F)C(F)(F)F [Example 19, 8-(3-Hydroxyphenyl)-9-[6-(methyl{6-[(4,4,5,5,5-pentafluoropentyl)sulphonyl]hexyl}amino)hexyl]-6,7-dihydro-5H-benzo[7]annulen-3-ol] | 5 |  | 38 | 
4 | CN(CCCCCCC1=C(c2cc(O)ccc2F)CCCc2cc(O)ccc21)CCCS(=O)(=O)CCCC(F)(F)C(F)(F)F [Example 23, 8-(2-Fluoro-5-hydroxyphenyl)-9-[6-(methyl{3-[(4,4,5,5,5-pentafluoropentyl)sulphonyl]propyl}amino)hexyl]-6,7-dihydro-5H-benzo[7]annulen-3-ol] | 2 |  | 77 | 
5 | CN(CCCCCCC1=C(c2ccc(F)c(O)c2)CCCc2c1ccc(O)c2Cl)CCCS(=O)(=O)CCCC(F)(F)C(F)(F)F [Example 24, 4-Chloro-8-(4-fluoro-3-hydroxyphenyl)-9-[6-(methyl{3-[(4,4,5,5,5-pentafluoropentyl)sulphonyl]propyl}amino)hexyl]-6,7-dihydro-5H-benzo[7]annulen-3-ol] | 13 |  | 14 | 
6 | CN(CCCCCCC1=C(c2ccc(O)cc2)CCCc2cc(O)ccc21)CCCS(=O)(=O)CCCC(F)(F)C(F)(F)F [Example 27, 8-(4-Hydroxyphenyl)-9-[6-(methyl{3-[(4,4,5,5,5-pentafluoropentyl)sulphonyl]propyl}amino)hexyl]-6,7-dihydro-5H-benzo[7]annulen-3-ol] | 1 |  | 80 | 2.4
7 | CN(CCCCCCC1=C(c2ccc(F)c(O)c2)CCCc2cc(O)ccc21)CCCS(=O)(=O)CCCC(F)(F)C(F)(F)F [Example 29, 8-(4-Fluoro-3-hydroxyphenyl)-9-[6-(methyl{3-[(4,4,5,5,5-pentafluoropentyl)sulphonyl]propyl}amino)hexyl]-6,7-dihydro-5H-benzo[7]annulen-3-ol] | 3 |  | 61 | 1.1
8 | CN(CCCCCC1=C(c2ccc(O)c(F)c2)CCCc2cc(O)ccc21)CCCS(=O)(=O)CCCC(F)(F)C(F)(F)F [Example 38, 8-(3-Fluoro-4-hydroxyphenyl)-9-[5-(methyl{3-[(4,4,5,5,5-pentafluoropentyl)sulphonyl]propyl}amino)pentyl]-6,7-dihydro-5H-benzo[7]annulen-3-ol] | 2 |  | 57 | 1.7
9 | CN(CCCCCCC1=C(c2cccnc2)CCCc2cc(O)ccc21)CCCS(=O)(=O)CCCC(F)(F)C(F)(F)F [Example 44, 9-[6-(Methyl{3-[(4,4,5,5,5-pentafluoropentyl)sulphonyl]propyl}amino)hexyl]-8-(3-pyridyl)-6,7-dihydro-5H-benzo[7]annulen-3-ol] | 7 |  | 32 | 
10 | CN(CCCCCCC1=C(c2ccc(S(C)(=O)=O)cc2)CCCc2cc(O)ccc21)CCCS(=O)(=O)CCCC(F)(F)C(F)(F)F [Example 49, 8-(4-Mesylphenyl)-9-[6-(methyl{3-[(4,4,5,5,5-pentafluoropentyl)sulphonyl]propyl}amino)hexyl]-6,7-dihydro-5H-benzo[7]annulen-3-ol] | 3 |  | 72 | 
11 | CN(CCCCCCC1=C(c2cccc(O)c2)CCCc2cc(O)ccc21)CCCS(=O)(=O)CCCC(F)(F)F [Example 51, 8-(3-Hydroxyphenyl)-9-[6-(methyl{3-[(4,4,4-trifluorobutyl)sulphonyl]propyl}amino)hexyl]-6,7-dihydro-5H-benzo[7]annulen-3-ol] | 2 |  | 62 | 
12 | CN(CCCCCCC1=C(c2cccc(O)c2)CCCc2cc(O)ccc21)CCCS(=O)(=O)CCC(F)(F)F [Example 56, 8-(3-Hydroxyphenyl)-9-[6-(methyl{3-[(3,3,3-trifluoropropyl)sulphonyl]propyl}amino)hexyl]-6,7-dihydro-5H-benzo[7]annulen-3-ol] | 3 |  | 33 | 
13 | CN(CCCCCCC1=C(c2ccccc2)CCCc2cc(O)ccc21)CCCCS(=O)(=O)CCCC(F)(F)F [Example 58, 9-[6-(Methyl{4-[(4,4,4-trifluorobutyl)sulphonyl]butyl}amino)hexyl]-8-phenyl-6,7-dihydro-5H-benzo[7]annulen-3-ol] | 3 |  | 88 | 
14 | CN(CCCCCCC1=C(c2ccccc2)CCCc2c1ccc(O)c2Cl)CCCS(=O)(=O)CCCC(F)(F)C(F)(F)F [Example 102, 4-Chloro-9-[6-(methyl{3-[(4,4,5,5,5-pentafluoropentyl)sulphonyl]propyl}amino)hexyl]-8-phenyl-6,7-dihydro-5H-benzo[7]annulen-3-ol] | 32 |  | 24 | 
15 | O=C(c1ccc(OCCN2CCCCC2)cc1)c1c(-c2ccc(O)cc2)sc2cc(O)ccc12 [raloxifene hydrochloride, raloxifene, reference compound] |  |  |  | 3.1
